Data reported in the supplement of paper PMC10307832.

Assays:
Experiment in all cases: relative viability (nuclei count vs DMSO), 5 days (fraction); higher = more cells survive
[1] = compound: C1CNCCC1C2=CC(=NN2)C3=CC=NC=C3 + COc1cc2c(Oc3ccc(NC(=O)C4(C(=O)Nc5ccc(F)cc5)CC4)cc3F)ccnc2cc1OCCCN1CCOCC1 [Foretinib] (partner 0.25 µM)
Outline: (§1)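 Lung cancer cell lines in 1536-well plates got either a single drug or a fixed anchor-drug dose together with five library-drug doses (not always all listed) in √10 steps, by pin tool, on the day after seeding. Nuclei were counted after 5 days, and relative viability is the treated-to-vehicle ratio of nuclei counts. Values are medians of duplicate plates.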

[2] = compound: C1CNCCC1C2=CC(=NN2)C3=CC=NC=C3 + C[C@]1(O)C[C@@H](c2nc(-c3ccc4ccc(-c5ccccc5)nc4c3)c3c(N)nccn32)C1 [Linsitinib] (partner 1 µM)
Outline: as §1

Tanzisertib + Linsitinib = compound: O[C@H]1CC[C@H](Nc2ncc3nc(Nc4c(F)cc(F)cc4F)n([C@H]4CCOC4)c3n2)CC1 [Tanzisertib] + C[C@]1(O)C[C@@H](c2nc(-c3ccc4ccc(-c5ccccc5)nc4c3)c3c(N)nccn32)C1 [Linsitinib] (partner 1 µM)
Outline: as §1

Tanzisertib + Tozasertib = compound: O[C@H]1CC[C@H](Nc2ncc3nc(Nc4c(F)cc(F)cc4F)n([C@H]4CCOC4)c3n2)CC1 [Tanzisertib] + Cc1cc(Nc2cc(N3CCN(C)CC3)nc(Sc3ccc(NC(=O)C4CC4)cc3)n2)n[nH]1 [Tozasertib] (partner 0.1 µM)
Outline: as §1

Cell Line	relative viability ([1]; first compound 0.08 µM)	relative viability ([1]; first compound 0.8 µM)	relative viability ([1]; first compound 2.53 µM)	relative viability ([1]; first compound 8 µM)	relative viability ([2]; first compound 0.08 µM)	relative viability ([2]; first compound 0.8 µM)	relative viability ([2]; first compound 2.53 µM)	relative viability ([2]; first compound 8 µM)	relative viability (Tanzisertib + Linsitinib; first compound 0.08 µM)	relative viability (Tanzisertib + Linsitinib; first compound 0.253 µM)	relative viability (Tanzisertib + Linsitinib; first compound 0.8 µM)	relative viability (Tanzisertib + Linsitinib; first compound 2.53 µM)	relative viability (Tanzisertib + Linsitinib; first compound 8 µM)	relative viability (Tanzisertib + Tozasertib; first compound 0.08 µM)	relative viability (Tanzisertib + Tozasertib; first compound 0.253 µM)	relative viability (Tanzisertib + Tozasertib; first compound 0.8 µM)	relative viability (Tanzisertib + Tozasertib; first compound 2.53 µM)	relative viability (Tanzisertib + Tozasertib; first compound 8 µM)
NCI-H358	0.551	0.672	0.727	0.69	0.595	0.792	0.688	0.765	0.771	0.662	0.76	0.782	0.566	0.119	0.0917	0.106	0.107	0.117
NCI-H441	0.945	1.18	1.12	0.834	0.65	0.361	0.753	0.497	0.626	0.607	0.634	0.553	0.454	0.568	0.71	0.512	0.422	0.698
NCI-H460	0.978	1.1	1.02	1.07	0.421	1.22	0.818	0.849	0.982	0.706	0.738	0.783	0.525	0.548	0.376	0.457	0.382	0.099
NCI-H520	0.613	0.722	0.811	0.545	0.883	1.04	0.867	0.912	1.19	1.11	0.941	0.832	0.927	0.411	0.464	0.403	0.428	0.414
NCI-H596	0.87	0.834	0.965	0.889	0.894	1.12	1.03	1.03	1.19	0.956	1.11	1.12	1.02	1.02	0.809	0.971	1.06	0.715
NCI-H647	0.922	1.04	1.27	1.32	1.28	1.45	1.38	1.09	1.17	1.29	1.12	1.24	1.3	0.283	0.269	0.281	0.388	0.226
NCI-H650	1	0.924	1.06	0.998	0.751	0.727	1.06	0.75	0.949	0.918	0.92	1.2	0.366	0.761	0.796	0.776	0.768	0.65
NCI-H661	1.1	1.05	1.01	1.02	0.534	0.524	0.528	0.584	0.657	0.495	0.619	0.477	0.599	0.361	0.345	0.331	0.35	0.359
NCI-H727	0.805	0.758	1.13	0.904	0.362	0.338	0.294	0.21	0.358	0.32	0.322	0.38	0.249	0.702	0.714	0.699	0.663	0.66
NCI-H838	1.03	0.996	1.08	0.996	0.969	1.05	1.07	0.983	1.02	0.997	1	1.01	0.919	0.317	0.283	0.301	0.249	0.237
NCI-H1355	0.906	0.938	1.05	0.923	0.868	0.71	0.891	0.797	0.785	0.826	0.923	0.858	0.777	0.526	0.562	0.576	0.528	0.405
NCI-H1395	0.982	0.821	1.15	1.04	1.02	0.886	1.24	0.977	1.32	0.956	1.08	1.04	1.05	0.869	0.773	0.783	0.687	0.712
NCI-H1437	1.21	1.32	1.25	1.28	0.986	1.03	1.16	1.05	1.14	0.981	1.11	1.13	0.971	0.451	0.394	0.407	0.381	0.384
NCI-H1651	0.763	0.839	0.7	0.851	0.923	0.977	0.966	1.14	0.956	0.837	1.05	1.05	0.854	0.711	0.707	0.637	0.689	0.557
NCI-H1666	0.887	0.987	0.963	1.03	0.758	0.748	0.862	0.814	0.834	0.862	0.832	0.777	0.933	0.609	0.698	0.611	0.656	0.592
NCI-H1734	0.81	0.919	0.992	0.836	0.845	0.885	0.908	0.811	1.09	0.902	0.861	0.871	0.87	0.267	0.282	0.254	0.251	0.236
NCI-H1755	0.968	–	0.908	0.897	1.01	0.966	0.969	0.916	0.989	0.997	0.975	0.953	0.892	0.58	0.618	0.561	0.582	0.533
